From patent US7169763B2, “Cytochrome P450 3A inhibitors and enhancers” (priority 2002, dated 2007)
Like-named read-outs stand apart in the source and are kept apart here.

Tests used:
in vivo = conditions: beagle, dog, po, 10 mg/kg
CYP3A [1] = system: CYP3A; parameters: CYP3A Activity (percentage of control): dose or concentration left out as unconfirmed
[2] = given by mouth; cited from earlier work
CYP3A [3] = assay: Determination of CYP3A activity by erythromycin demethylation method (rat liver homogenate/microsomes); parameters: CYP3A Activity (percentage of control): dose or concentration left out as unconfirmed; conditions: for CYP3A Activity (percentage of control): Table 1 Inhibition; for inhibitory effects on rat liver CYP3A (in words): summary of Table 1

`CCC(C)(C)C(=O)O[C@H]1C[C@@H](C)C=C2C=C[C@H](C)[C@H](CC[C@@H]3C[C@@H](O)CC(=O)O3)[C@H]21` [Simvastatin] gave an MRT (in vivo) of 2.79 h, a Tmax (in vivo) of 0.75 h and a half-life (in vivo) of 1.47 h.
With `O=C/C=C/c1ccccc1` [Trans-cinnamaldehyde] the “inhibitory effects on rat liver CYP3A (in words)” value (“inhibitory effects” for short) (CYP3A [1]) was “particularly effective” and the “CYP3A Activity (percentage of control)” value (CYP3A [1]; rat, 15 min, 10.22) was 30.95 ± 1.03 percentage of control.
For `CC(C)(C)c1ccc(C(O)CCCN2CCC(C(O)(c3ccccc3)c3ccccc3)CC2)cc1` (centres unmarked) [terfenadine], the “fraction of active ingredient quickly changed to metabolites” value [2] is listed as 99.5%.
For `O=C(O)c1cc(O)c(O)c(O)c1` [Gallic acid], the “CYP3A Activity (percentage of control)” value (CYP3A [3]; inhibitor concentration 4.3) was 43.86 ± 4.45 percentage of control, the “CYP3A Activity (percentage of control)” value (CYP3A [3]; inhibitor concentration 24.66) was 43.65 ± 0.57 percentage of control and the “CYP3A Activity (percentage of control)” value (CYP3A [3]; inhibitor concentration 77.07) was 44.09 ± 4.39 percentage of control. The “inhibitory effects” value (CYP3A [3]) was “particularly effective”.
With `C=CC(=C)CCC=C(C)C` [β-myrcene] the “CYP3A Activity (percentage of control)” value (CYP3A [3]; inhibitor concentration 4.3) was 55.95 ± 4.45 percentage of control and the “inhibitory effects” value (CYP3A [3]) was “particularly effective”.
With `C[C@@H]1O[C@@H](O[C@H]2[C@H](Oc3cc(O)c4c(c3)O[C@H](c3ccc(O)cc3)CC4=O)O[C@H](CO)[C@@H](O)[C@@H]2O)[C@H](O)[C@H](O)[C@H]1O` [Narigin] the “CYP3A Activity (percentage of control)” value (CYP3A [3]; inhibitor concentration 21.67) was 56.22 ± 22.87 percentage of control and the “inhibitory effects” value (CYP3A [3]) was “particularly effective”.
